From ChEMBL document CHEMBL1123971, “Synthesis, platelet aggregation inhibitory activity, and in vivo antithrombotic activity of new 1,4-dihydropyridines” (J Med Chem, 1988)

Experiments:
[1] = tested on: Felis catus; test: Effect of intraperitoneal infusion of compound on cardiac frequency in Anesthetized cats at a dose of 200 mg/kg at 45 min; assay type: functional, Heart
[2] = tested on: Felis catus; test: Effect of intraperitoneal infusion on respiration frequency in Anesthetized cats at a dose of 200 mg/kg at 75 min; assay type: functional
[3] = tested on: Felis catus; test: Effect of intraperitoneal infusion on diastolic pressure in Anesthetized cats at a dose of 200 mg/kg at 30 min; assay type: functional
[4] = tested on: Felis catus; test: Effect of intravenous infusion on cardiac frequency in Anesthetized cats at a dose of 0.30 mg/kg at 2 min; assay type: functional, Heart; settings: dose 0.3 mg/kg
[5] = tested on: Felis catus; test: Effect of intravenous infusion on respiration frequency in Anesthetized cats at a dose of 1.50 mg/kg at 10 min; assay type: functional; settings: dose 1.5 mg/kg
[6] = tested on: Felis catus; test: Effect of intraperitoneal infusion of compound on cardiac frequency in Anesthetized cats at a dose of 200 mg/kg at 165 min; assay type: functional, Heart
[7] = tested on: Felis catus; test: Effect of intravenous infusion on systolic pressure in Anesthetized cats at a dose of 0.30 mg/kg at 2 min; assay type: functional; settings: dose 0.3 mg/kg
[8] = tested on: Felis catus; test: Effect of intravenous infusion on diastolic pressure in Anesthetized cats at a dose of 0.75 mg/kg at 5 min; assay type: functional

For `CCO/C(O)=C1\C(C)=NC(C)=C(C(=O)OCCN2C(=O)c3ccccc3S2(=O)=O)C1C` (stereo not drawn), the Cardiac frequency [1] was 245 beats min-1, the Respiratory frequency [2] was 12 r.p.m and the Arterial pressure [3] was 90 mmHg. For the same compound, the Cardiac frequency [4] was 190 beats min-1, the Respiratory frequency [5] was 18 r.p.m and the Cardiac frequency [6] was 278 beats min-1. For the same compound, the Arterial pressure [7] was 165 mmHg and the Arterial pressure [8] was 112 mmHg.
